Test results as given in patent US8742082B2, “Compositions and methods for influencing satiety, lipid metabolism, and fat utilization” (Nestec S.A., priority 2008, dated 2014).

What was measured:
Type in all cases: in vivo
[1] = test system: Fatty Acid Synthase (FAS 1); assay: Real-time PCR gene expression in peripheral tissues: FAS; conditions: liver; C57bl6j mice, high fat diet, 100 mg/kg/body weight in diet, 5 weeks
Description: (§1) The expression of 45 genes was measured by real-time PCR in peripheral tissues to identify genes that were differentially expressed in response to oral administration of oleoylethanolamide (OEA) or a non-hydrolysable OEA analog (KDS 5104), which affect satiety, lipid metabolism, fat utilization, food intake, and body fat mass.
(§2) Animals, diet, and experimental design. Adult male C57bl6j mice purchased at 8 weeks of age were individually housed and maintained ad libitum on high fat diet and water for 2 weeks. Seven mice were randomly allocated in 3 groups and fed with a high fat diet (lipids represented 50% of daily energy) for 2 weeks. […]
(§3) RNA extraction and gene expression. […] The RNA concentration was determined on nanodrop from the absorbance at 260 nm. […] Real-time quantitative PCR (RT-qPCR) were performed on cDNA obtained as described above using a high through put system (Biomek 3000, Beckman & Coulter, Fullerton, USA) and a Lightcycler 480 (Roche/Hitachi, Basel, Switzerland) with SYBR Green Master mix+kit (Eurogentec, Philadelphia, USA). […] Values were expressed as ratio of RNA levels relative to control mice (diets with 0 mg of OEA/kg/body weight) using ΔΔ(Ct) (Livak K J & Schmittgen T D, 2001, Methods 25:402-8). Gene expression of the following genes was measured (abbreviation and GenBank Accession shown in parentheses). […]

[2] = test system: Protein convertase subtilisin/kexin type 9 (PCSK 9); assay: Real-time PCR gene expression in peripheral tissues: PCSK9; conditions: liver; C57bl6j mice, high fat diet, 100 mg/kg/body weight in diet, 5 weeks
Description: as §1, §2, §3

[3] = test system: Glucose 6-phosphatase (G6P); assay: Real-time PCR gene expression in peripheral tissues: G6P; conditions: liver; C57bl6j mice, high fat diet, 100 mg/kg/body weight in diet, 5 weeks
Description: as §1, §2, §3

[4] = test system: overall gene expression pattern; assay: Multivariate statistical analysis of overall gene expression pattern; conditions: C57bl6j mice, high fat diet, 100 mg/kg/body weight in diet, 5 weeks
Description: as §1, §2, §3

[5] = test system: Glucose transporter 4 (Glut 4); assay: Real-time PCR gene expression in peripheral tissues: Glut 4; conditions: muscle; C57bl6j mice, high fat diet, 100 mg/kg/body weight in diet, 5 weeks
Description: as §1, §2, §3

[6] = test system: Cannabinoid receptor 1 (CB 1); assay: Real-time PCR gene expression in peripheral tissues: CB1; conditions: C57bl6j mice, high fat diet, 100 mg/kg/body weight in diet, 5 weeks
Description: as §1
Animals, diet, and experimental design. Adult male C57bl6j mice purchased at 8 weeks of age were individually housed and maintained ad libitum on high fat diet and water for 2 weeks. Seven mice were randomly allocated in 3 groups and fed with a high fat diet (lipids represented 50% of daily energy) for 2 weeks. For one kilogram, the composition of the high fat diet was: 235 g casein, 201 g saccharose, 3.5 g L-cystine, 85 g starch, 116 g maltodextrin, 60 g cellulose, 12 g vitamins mix (AIN-93M, UPAE, Jouy-en-Josas, France), 51.5 g mineral mix (AIN-93Vx, UPAE, Jouy-en-Josas, France), and 236 g lard. Then, either OEA or KDS 5104 was added to the diet at a concentration of 100 mg/kg/body weight. The mice were kept under treatment for 5 weeks.
Sampling. At the end of the experimental period, mice were sacrificed by blood drawing (cardiac puncture) after anesthesia with isoflurane. Plasma was obtained by centrifugation (1,000 g for 10 min at 4° C.). Mesenteric, epididymal, inguinal and peritoneal adipose depots, as well as liver, stomach, small intestine mucosa, pancreas, and gastrocnemian muscle were removed and frozen into liquid nitrogen. Plasma, urine, feces, and organ samples were kept at −80° C. until analysis.
RNA extraction and gene expression. Total RNA from liver, intestine mucous membrane, adipose tissues, gastrocnemian muscle, pancreas and stomach were extracted with TRIzol reagent (Invitrogen, Carlsbad, USA) according to the manufacturer's instruction. The RNA concentration was determined on nanodrop from the absorbance at 260 nm. Retro-transcription PCRs to synthesize cDNA were performed using an Applied Biosystem Thermal Cycler 2720 and Superscript II (Invitrogen, Carlsbad, USA) according to manufacturer's protocol. Real-time quantitative PCR (RT-qPCR) were performed on cDNA obtained as described above using a high through put system (Biomek 3000, Beckman & Coulter, Fullerton, USA) and a Lightcycler 480 (Roche/Hitachi, Basel, Switzerland) with SYBR Green Master mix+kit (Eurogentec, Philadelphia, USA). Primers for the selected genes were generated using online informatics assistance from the Lightcycler manufacturer (Roche). Databases used to identify the genes were (1) the NCBI database (GenBank) and (2) the IHOP (Information Hyperlinked over Protein) database (www.ihop-net.org/UniPub/iHOP/bng/). Values were expressed as ratio of RNA levels relative to control mice (diets with 0 mg of OEA/kg/body weight) using ΔΔ(Ct) (Livak K J & Schmittgen T D, 2001, Methods 25:402-8). Gene expression of the following genes was measured (abbreviation and GenBank Accession shown in parentheses).
Statistical analysis. […] Statistical analysis of physiological parameters and gene expression data was performed by one-way ANOVA on Statview software (SAS Institute, Cary, USA). Daily food intake was analyzed using two-way ANOVA on Statview software. Statistical significance was set up at the P<0.05 level, the P<0.01 level and the P<0.001 level. For statistical analysis of the gene expression data, values were calculated relative to 18S expression for each mouse and gene.

SMILES: CCCCCCCC/C=C\CCCCCCCC(=O)NCCO [OEA, N-oleoyl-ethanolamide]
- FAS l, ratio of RNA levels relative to control mice [1]: 1.65
- PCSK9 l, ratio of RNA levels relative to control mice [2]: 1.44
- G6P l, ratio of RNA levels relative to control mice [3]: 1.29
- overall gene expression pattern (multivariate statistical analysis) [4]: significant shift
- Glut 4 m, ratio of RNA levels relative to control mice [5]: 3.27
- CB1 at ep, ratio of RNA levels relative to control mice ([6]; epidydimal adipose tissue): −1.94
- CB1 at per, ratio of RNA levels relative to control mice ([6]; peritoneal adipose tissue): −5.27
- CB1 i, ratio of RNA levels relative to control mice ([6]; proximal intestine): −1.02
